Experimental data as given in paper PMC2879362, “Design of Group IIA Secreted/Synovial Phospholipase A2 Inhibitors: An Oxadiazolone Derivative Suppresses Chondrocyte Prostaglandin E2 Secretion” (PLoS ONE, 2010).

Target: T1, human GIIAPLA2 (hGIIAPLA2) (Homo sapiens, UniProt P14555)
T1 construct: hGIIAPLA2 was prepared as previously described [33]; made in house
T1 sequence (P14555 21-144): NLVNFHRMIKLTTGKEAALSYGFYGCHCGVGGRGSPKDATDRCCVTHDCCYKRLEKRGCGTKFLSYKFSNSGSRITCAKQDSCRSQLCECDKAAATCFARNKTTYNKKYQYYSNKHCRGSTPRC
Assay: In vitro fluorimetric PLA2 assay (β-py-C10-PG substrate)
Type: biochemical
Conditions: 2 µM β-py-C10-PG, 1 ng/mL hGIIAPLA2
Procedure: The compounds C1-C8 were submitted to fluorimetric assay to determine their inhibitory potencies and selectivity towards human GIIAPLA2 (hGIIAPLA2) versus porcine group IB PLA2 (pGIBPLA2) (Table 2). GIBPLA2 is an enzyme of the same family as GIIAPLA2 (sPLA2) but is mainly involved in digestion of dietary phospholipids and is secreted by the pancreas. Lipophilicity parameters, log P, of these products are calculated by use of Rekker's fragmental data (Table 2). The molecules C1-C8 are specific inhibitors of hGIIAPLA2 because none inhibited pGIBPLA2 at the highest concentration tested (100 µM). Such selectivity implies that C1-C8 should not interfere with the digestion process.
Fatty-acid free BSA and pancreatic PLA2 were from Sigma. hGIIAPLA2 was prepared as previously described. The fluorescent substrate for PLA2 assay, 1-hexadecanoyl-2-(10-pyrenedecanoyl)-sn-glycero-3-phosphoglycerol, ammonium salt (β-py-C10-PG) was from Molecular Probes (Eugene). PLA2 activity was evaluated as previously described with β-py-C10-PG used as a substrate (2 µM final concentration). In a total volume of 1 mL, the standard reaction medium contained 50 mM Tris-HCl (pH 7.5), 500 mM NaCl, 1 mM EGTA, 2 µM β-py-C10-PG, 0.1% fatty-acid free BSA and 6 ng/mL pancreatic PLA2 or 1 ng/mL hGIIAPLA2. The fluorescence (λex = 342 nm and λem = 398 nm) of the enzymatic reaction medium was recorded for 3 min with use of a spectrofluorimeter LS 50 (Perkin-Elmer) equipped with a Xenon lamp. The reaction was initiated by the addition of CaCl2 (10 mM, final concentration). The increase in fluorescence was continuously recorded for 1 min, and PLA2 activity was calculated as previously described. When used, the inhibitor was added to the reaction medium after introduction of BSA. The activity is expressed in micromoles of fluorescent β-py-C10-PG hydrolyzed per min. The standard error of the mean of three independent experiments was less than 10%, which allows for the determination of the IC50 values (concentration of inhibitors producing 50% inhibition) of each compound.

Question: With O=c1[nH]c(Cc2ccc(OCCCCCOc3cc4ccccc4c4ccccc34)cc2)no1 [C8] as the molecule, how does the IC50 read?
Answer: 620 ± 150 nM
